Data: PMC10933920, “Synthesis and Anti-Inflammatory Activity of Ferulic Acid-Sesquiterpene Lactone Hybrids” (Molecules, 2024)
≈ marks a conversion by molar mass, not a printed value. Entries after “also recorded” stand apart in the source; their conditions may differ. One block for each molecule: values may come before it.

What was measured:
[1] = Aqueous solubility measurement; format: physicochemical; settings: for solubility: thermodynamic from solid, deionized water, pH = 7.0, at least in duplicate, read-out: Aqueous Solubility IC50; for water solubility (in words): pH 7.0
Experimental: PTL, MCL and compounds 1–6 (0.1, 1, 10 mg) were dissolved in deionized water (pH = 7.0) until the solution was clear. The assays were measured at least in duplicate.

[2] = tested on: RAW264.7 cells; test: CCK-8 cell viability (cytotoxicity) assay; format: cell-based, Mouse; settings: for IC50: RAW264.7 cells, CCK-8, 24 h incubation, means of three independent experiments
Experimental: CCK-8 Cell Proliferation was used to confirm the non-cytotoxic dose of those derivatives in RAW264.7 cells. However, IC50 values of those compounds show visible difference in vitro (Table 1). Considering the safety of compound 6 in RAW264.7 cells, a follow-up experiment was carried out at the concentration of 2 μM.
The toxicity of those compounds was determined by the CCK-8 assay. RAW264.7 cells were seeded in a 96-well plate at a density of 2 × 10^5/mL and a volume of 100 μL/well. After incubation for 12 h at 37 °C, the cells were then incubated with compounds at concentrations of 1.25, 2.5, 5, 10, 20, 40 and 80 μM for 24 h, followed by the addition of 10 μL CCK-8 solution to each well, and the plates were further incubated for 2 h at 37 °C. The absorbance at a wavelength of 450 nm was measured using a microplate reader (Bio-Rad Laboratories, Inc., Hercules, CA, USA).

[3] = tested on: LPS-induced expression of IL-1β, IL-6 and iNOS in RAW264.7 cells; test: qRT-PCR of pro-inflammatory cytokine gene expression after LPS stimulation; format: cell-based, Mouse; settings: RAW264.7 cells pre-treated 2 h, LPS 1 μg/mL 6 h, RT-PCR, 2 μM
Source text: Inflammatory factors, including TNF-α, IL-1β, and IL-6, are involved in and accelerate inflammatory responses during inflammatory progression. In addition, iNOS (Nitric oxide synthase)-derived monocytes contribute to macrophage recruitment in the lung, and pulmonary-derived iNOS is detrimental during acute lung injury. Moreover, observations indicate that inhibiting iNOS can reduce inflammation in the early stages of the bleomycin model of acute lung injury. Therefore, the effective suppression of inflammation is considered an effective marker for the treatment of inflammation. To establish the efficacy of those compounds suppressing inflammatory procession, we tested pro-inflammatory cytokines that are released from the RAW264.7 cells upon LPS stimulation.
Total RNA was isolated using TRIzol reagent (Takara, Ōtsu-shi, Japan) and then transcribed into cDNA using a transcriptor cDNA synthesis kit (TransGen Biotech, Beijing, China) according to the manufacturer’s instructions. Quantitative real-time PCR was performed with TransStart® Green qPCR SuperMix (TransGen Biotech, China). The conditions for the real-time PCR reaction were as follows: 94 °C, 30 s; 94 °C, 5 s; 60 °C, 30 s; 40 cycles. The primers for this research are listed in Supplementary Material Table S1.
Figure 2 Anti-inflammation of 1–6 in RAW264.7 Cells. Expression of proinflammatory cytokines in RAW264.7 cells use RT-PCR. Cells (1 × 10^6 cells/well) were seeded into 6-well plates and then pro-treated with 1–6 for 2 h. Cells were then challenged with LPS (1 μg/mL) or medium alone for 6 h and Total RNA was extracted from cells with Trizol reagent. TNF-α: tumor necrosis factor-α; IL-1β:Interleukin-1β; L-6: Interleukin-6. Data were analyzed by One-Way ANOVA. *: p < 0.05; **: p < 0.01. ns: no significance.

[4] = parameters: method as in PMID 30208745; settings: cited from earlier work
[5] = Release of prodrug into active drug in HEPES buffer; format: physicochemical; settings: HEPES buffer pH 7.4, 37 °C, HPLC; read-out: T1/2 (conversion of prodrug 6 into compound 3) (converted)
Experimental: The Michael addition reaction has emerged as an effective synthetic strategy to improve the water solubility and pharmaceutical efficacy of active drug compounds [34]. […] In addition, the use of Michael addition products can also serve to modulate the release rate of active drugs, thereby enabling better control over the pharmacological effects of such compounds. Thus, the experiment of converting the prodrug compound (6) into compound (3) was evaluated in a HEPES buffer solution with a pH of 7.4. Compound 6 rapidly releases compound 3 under these conditions. (Figure 6, T1/2 = 2 h).
A total of 10 mg of compound 6 was dissolved in 10 mL MeCN. A 0.5 mL volume of compound 6 solution was placed in 49.5 mL of HEPES at pH 7.4. The tubes were then incubated in a bath incubator at 37 °C. Samples were removed after 10 s, and the concentration of compound 6 and 3 was analyzed by HPLC.
Figure 6 The stability of compound 6 in pH7.4 HEPES buffer.

[6] = tested on: TNF-α and IL-6 release from LPS-stimulated RAW264.7 cells; test: ELISA of pro-inflammatory cytokine protein levels in culture supernatant; format: cell-based, Mouse; settings: RAW264.7 cells pre-treated 6 h, LPS 24 h
[7] = tested on: BLM-induced acute lung injury in C57BL/6J mice; test: Bleomycin-induced acute lung injury model; format: in vivo; settings: compound 6 10 mg/kg i.p. daily for 14 days
Experimental: To further confirm the anti-inflammation effect of compound 6 in vivo, we made the acute-lung-injury model in C57/6j mice using bleomycin. […] To further investigate the protective effect of 6 by BLM-induced ALI, the pathological changes in lung tissues were studied (Figure 5).
C57BL/6J mice (male) were purchased from Vital River Laboratories (Beijing, China). All procedures were conducted according to the Nankai University Guidelines on Animal Care, and the experimental protocol was approved by the Institutional Animal Protection Committee of the Nankai University (Tianjing, China, NO. 2022-SYDWLL-000342). Animals were sheltered under standard conditions with food and water provided ad libitum. Experiments were conducted on 8-week-old male mice, randomly divided into 4 groups: Control (Con), ALI (bleomycin), Dex (dexamethasone) and compound 6. For bleomycin-induced lung injury, mice were sedated, and a single dose of intratracheal bleomycin (4 mg/kg; Selleckchem, Houston, TX, USA) in sterile PBS. 6 was administered daily for 14 days via intraperitoneal injections (i.p) (100 μL/mouse of […] 6 in PBS). Dexamethasone (2 mg/kg) was administered orally. The mice were monitored and their weight was measured daily. After 14 days, the mice were killed with anesthetic overdose and exsanguinated by cutting the abdominal aorta before the collection of lungs.
Body weight variations were calculated from the measured weights at each time point (days 1–14), including before the sacrifice of the mice reaching the endpoints. To avoid a potential bias by studying the animals with the better outcomes, animals reaching endpoints were included in the calculation of the weight variation and survival rates.
Figure 4 Effect of compound 6 on body weight and survival after bleomycin-induced acute lung injury in mice. After bleomycin (4 mg/kg, 25 μL), mice were treated (i.p) daily with compound 6 (10 mg/kg, 100 μL) for 14 days. Body weight variations ((A), n = 12) and percentage (%) of mouse survival ((B), n = 5–12) were compared between the four groups. (Values are means ± SEM, ** p < 0.01). […]

SMILES: COc1cc(C=CC(=O)NCC2=CCCC3(C)OC3C3OC(=O)C(CN(C)C)C3CC2)ccc1O [Compound 4, (E)-N-(((1aR,7aS,8R,10aS,10bS,E)-8-((dimethylamino)methyl)-1a-methyl-9-oxo-1a,2,3,6,7,7a,8,9,10a,10b-decahydrooxireno[2′,3′:9,10]cyclodeca[1,2-b]furan-5-yl)methyl)-3-(4-hydroxy-3-methoxyphenyl)acrylamide]
melting point: 132 to 134 °C | solubility [1]: < 10 µg/mL | IC50 ([2]; Mus musculus, RAW264.7, 24 h): 38.4 ± 1.14 µM | gene expression of pro-inflammatory cytokines (IL-1β, IL-6, iNOS) [3]: neither the amide derivative of FA-PTL hybrid 4 or 5 (the prodrug of 2 containing citric acid) showed anti-inflammation activities

SMILES: C/C1=C\CC[C@@]2(C)O[C@@H]2[C@H]2OC(=O)[C@H](CN(C)C)[C@@H]2CC1 [DMAPT]
solubility relative to parent compound parthenolide [4]: more than 1000 times

SMILES: COc1cc(C=CC(=O)OCC2=CCCC3(C)OC3C3OC(=O)C(CN(C)C)C3CC2)ccc1O [Compound 6, ((1aR,7aS,8R,10aS,10bS,E)-8-((dimethylamino)methyl)-1a-methyl-9-oxo-1a,2,3,6,7,7a,8,9,10a,10b-decahydrooxireno[2′,3′:9,10]cyclodeca[1,2-b]furan-5-yl)methyl (E)-3-(4-hydroxy-3-methoxyphenyl)acrylate 2-hydroxypropane-1,2,3-tricarboxylate]
half-life at 10 µg/mL [5]: 2 h | protein levels / release of pro-inflammatory cytokines (TNF-α and) [6]: could also inhibit the release of pro-inflammatory cytokines in vitro | water solubility (in words) [1]: outstanding water solubility; also recorded: significantly improved water solubility; also recorded: good water solubility; also recorded: more soluble than the reference compound 3 | solubility [1]: 2500 µg/mL (≈ 5150 µM) | IC50 ([2]; Mus musculus, RAW264.7, 24 h): 6.95 ± 1.09 µM | decline in cytotoxic effect compared to parent compound 3 ([2]; RAW264.7 cell line, versus compound 3): 2 fold | gene expression of pro-inflammatory cytokines (IL-1β, IL-6, iNOS) [3]: comparable activities; also recorded: could significantly reduce inflammation of RAW264.7 cells induced by LPS | survival rate [7]: did not reverse the survival rate | acute lung injury / lung pathology (H&E: inflammatory cell infiltration, edema, alveolar structure) ([7]; 10 mg/kg): reduced inflammatory cell infiltration and edema in lung tissue of mice, and improved alveolar structure; also recorded: ameliorated inflammatory cell infiltration and edema in lung tissue; also recorded: could significantly decrease the acute lung injury induced by bleomycin | body weight loss ([7]; 10 mg/kg): prevented the weight loss significantly

SMILES: COc1cc(/C=C/C(=O)O)ccc1O [FA, Ferulic acid]
IC50 ([2]; Mus musculus, RAW264.7, 24 h): > 100 µM

Second part, led by results:

solubility [1]: < 10 µg/mL
SMILES: COc1cc(/C=C/C(=O)O[C@]2(C)CCC3=C(C)CC[C@@H]4[C@H](OC(=O)[C@H]4CN(C)C)[C@H]32)ccc1O [Compound 2, (3R,3aS,9R,9aS,9bS)-3-((dimethylamino)methyl)-6,9-dimethyl-2-oxo-2,3,3a,4,5,7,8,9,9a,9b-decahydroazuleno[4,5-b]furan-9-yl (E)-3-(4-hydroxy-3-methoxyphenyl)acrylate]
IC50 [2]: 19.6 ± 0.21 µM | gene expression of pro-inflammatory cytokines (IL-1β, IL-6, iNOS) [3]: decreased activity compared with compound 1

solubility [1]: 50 µg/mL (≈ 201 µM)
SMILES: C=C1C(=O)O[C@H]2[C@H]1CCC(C)=C1CC[C@@](C)(O)[C@@H]12 [MCL, micheliolide, reference compound]
IC50 ([2]; Mus musculus, RAW264.7, 24 h): 9.03 ± 0.16 µM

solubility [1]: 50 µg/mL (≈ 201 µM)
SMILES: C=C1C(=O)O[C@H]2[C@H]1CC/C(C)=C/CC[C@@]1(C)O[C@@H]21 [PTL, Parthenolide, reference compound]
IC50 ([2]; Mus musculus, RAW264.7, 24 h): 5.35 ± 0.06 µM

melting point: 96 to 98 °C | solubility [1]: < 10 µg/mL
SMILES: C=C1C(=O)OC2C1CCC(COC(=O)C=Cc1ccc(O)c(OC)c1)=CCCC1(C)OC21 [Compound 3, ((1aR,7aS,10aS,10bS,E)-1a-methyl-8-methylene-9-oxo-1a,2,3,6,7,7a,8,9,10a,10b-decahydrooxireno[2′,3′:9,10]cyclodeca[1,2-b]furan-5-yl)methyl (E)-3-(4-hydroxy-3-methoxyphenyl)acrylate]
IC50 ([2]; Mus musculus, RAW264.7, 24 h): 3.04 ± 0.08 µM | gene expression of pro-inflammatory cytokines (IL-1β, IL-6, iNOS) [3]: reduce the gene expression levels of IL-1β, IL-6 and iNOS significantly; also recorded: comparable activities

solubility [1]: < 10 µg/mL
SMILES: C=C1C(=O)O[C@@H]2C3C(=C(C)CC[C@@H]12)CC[C@@]3(C)OC(=O)/C=C/c1ccc(O)c(OC)c1 (stereo partly drawn) [Compound 1, (3aS,9R,9bS)-6,9-dimethyl-3-methylene-2-oxo-2,3,3a,4,5,7,8,9,9a,9b-decahydroazuleno[4,5-b]furan-9-yl (E)-3-(4-hydroxy-3-methoxyphenyl)acrylate]
IC50 ([2]; Mus musculus, RAW264.7, 24 h): 6.14 ± 0.09 µM | gene expression of pro-inflammatory cytokines (IL-1β, IL-6, iNOS) [3]: reduce the gene expression levels of IL-1β, IL-6 and iNOS significantly; also recorded: comparable activities

water solubility (in words) [1]: significantly improved water solubility | solubility [1]: 2500 µg/mL
SMILES: COc1cc(/C=C/C(=O)O[C@]2(C)CCC3=C(C)CC[C@@H]4[C@H](OC(=O)[C@H]4CN(C)C)[C@H]32)ccc1O.O=C(O)CC(O)(CC(=O)O)C(=O)O [Compound 5, (3R,3aS,9R,9aS,9bS)-3-((dimethylamino)methyl)-6,9-dimethyl-2-oxo-2,3,3a,4,5,7,8,9,9a,9b-decahydroazuleno[4,5-b]furan-9-yl (E)-3-(4-hydroxy-3-methoxyphenyl)acrylate 2-hydroxypropane-1,2,3-tricarboxylate]
IC50 ([2]; Mus musculus, RAW264.7, 24 h): 28.8 ± 0.21 µM | gene expression of pro-inflammatory cytokines (IL-1β, IL-6, iNOS) [3]: neither the amide derivative of FA-PTL hybrid 4 or 5 (the prodrug of 2 containing citric acid) showed anti-inflammation activities
